From ChEMBL document CHEMBL1201862, “PubChem BioAssay data set” (2004)
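Method: 48-hour compound exposure of cells in 96-well plates, five concentrations, linear interpolation of endpoints. GI50: concentration for 50% inhibition of growth.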 The source made the active and inactive calls. No stated cut-off is given here; in the data, active = GI50 up to about 1.1 µM and inactive = higher.

What was measured:
Test in all cases: NCI tumour cell line growth inhibition, 48 h
SNB-75 = tested on: SNB-75
NCI/ADR-RES = tested on: NCI/ADR-RES
DMS-273 = tested on: DMS-273
HCT-116 = tested on: HCT-116
DMS-114 = tested on: DMS-114
DLD-1 = tested on: DLD-1
EKVX = tested on: EKVX
CCRF-CEM = tested on: CCRF-CEM
SW-620 = tested on: SW-620
SK-MEL-28 = tested on: SK-MEL-28
CAKI-1 = tested on: CAKI-1
OVCAR-5 = tested on: OVCAR-5
UACC-257 = tested on: UACC-257
A498 = tested on: A498
SK-MEL-2 = tested on: SK-MEL-2
HOP-62 = tested on: HOP-62
COLO 205 = tested on: COLO 205
HL-60 = tested on: HL-60
M19-MEL = tested on: M19-MEL
UACC-62 = tested on: UACC-62
MOLT-4 = tested on: MOLT-4
HT-29 = tested on: HT-29
SF-539 = tested on: SF-539
IGROV-1 = tested on: IGROV-1
HOP-18 = tested on: HOP-18
XF498 = tested on: XF498
LOX IMVI = tested on: LOX IMVI
SNB-19 = tested on: SNB-19
NCI-H226 = tested on: NCI-H226
RXF 393 = tested on: RXF 393
SF-295 = tested on: SF-295
U-251 = tested on: U-251
UO-31 = tested on: UO-31
SN12C = tested on: SN12C
Malme-3M = tested on: Malme-3M
NCI-H23 = tested on: NCI-H23
OVCAR-8 = tested on: OVCAR-8
KM12 = tested on: KM12
OVCAR-3 = tested on: OVCAR-3
KM-20L2 = tested on: KM-20L2
HCC 2998 = tested on: HCC 2998
MCF7 = tested on: MCF7
OVCAR-4 = tested on: OVCAR-4
NCI-H522 = tested on: NCI-H522
HOP-92 = tested on: HOP-92
SF-268 = tested on: SF-268
A549 = tested on: A549
RPMI-8226 = tested on: RPMI-8226
SNB-78 = tested on: SNB-78
SK-OV-3 = tested on: SK-OV-3
HCT-15 = tested on: HCT-15
NCI-H460 = tested on: NCI-H460
K562 = tested on: K562
SK-MEL-5 = tested on: SK-MEL-5
SR = tested on: SR
LXFL 529 = tested on: LXFL 529
ACHN = tested on: ACHN
786-0 = tested on: 786-0
M14 = tested on: M14
TK-10 = tested on: TK-10

For `CN(C)CCNC(=O)c1cccc2[nH]c(-c3ccccn3)nc12`, the GI50 (SNB-75) was 21.2 µM (inactive), the GI50 (NCI/ADR-RES) was 26.1 µM (inactive) and the GI50 (DMS-273) was 26 µM (inactive). The GI50 (HCT-116) was 19.4 µM (inactive), the GI50 (DMS-114) was 27 µM (inactive) and the GI50 (DLD-1) was 33.7 µM (inactive). The GI50 (EKVX) was 41.4 µM (inactive), the GI50 (CCRF-CEM) was 23.5 µM (inactive) and the GI50 (SW-620) was 24.9 µM (inactive). The GI50 (SK-MEL-28) was 36.6 µM (inactive), the GI50 (CAKI-1) was 21.5 µM (inactive) and the GI50 (OVCAR-5) was 38.2 µM (inactive). For the same compound, the GI50 (UACC-257) was 28.6 µM (inactive), the GI50 (A498) was 36.6 µM (inactive) and the GI50 (SK-MEL-2) was 39.7 µM (inactive). For the same compound, the GI50 (HOP-62) was 35.3 µM (inactive), the GI50 (COLO 205) was 14 µM (inactive) and the GI50 (HL-60) was 33.7 µM (inactive). For the same compound, the GI50 (M19-MEL) was 29.7 µM (inactive), the GI50 (UACC-62) was 20.2 µM (inactive) and the GI50 (MOLT-4) was 20.7 µM (inactive). For the same compound, the GI50 (HT-29) was 19.6 µM (inactive), the GI50 (SF-539) was 43.5 µM (inactive) and the GI50 (IGROV-1) was 35.1 µM (inactive). The GI50 (HOP-18) was 29 µM (inactive), the GI50 (XF498) was 36.6 µM (inactive) and the GI50 (LOX IMVI) was 32.5 µM (inactive). For the same compound, the GI50 (SNB-19) was 42.2 µM (inactive), the GI50 (NCI-H226) was 18.5 µM (inactive) and the GI50 (RXF 393) was 51.2 µM (inactive). For the same compound, the GI50 (SF-295) was 31 µM (inactive), the GI50 (U-251) was 38.8 µM (inactive) and the GI50 (UO-31) was 16.8 µM (inactive). The GI50 (SN12C) was 34.8 µM (inactive), the GI50 (Malme-3M) was 24.9 µM (inactive) and the GI50 (NCI-H23) was 43.7 µM (inactive). For the same compound, the GI50 (OVCAR-8) was 27.9 µM (inactive), the GI50 (KM12) was 41.6 µM (inactive) and the GI50 (OVCAR-3) was 30.7 µM (inactive). The GI50 (KM-20L2) was 25.6 µM (inactive), the GI50 (HCC 2998) was 49 µM (inactive) and the GI50 (MCF7) was 31.5 µM (inactive). For the same compound, the GI50 (OVCAR-4) was 27.5 µM (inactive), the GI50 (NCI-H522) was 25.6 µM (inactive) and the GI50 (HOP-92) was 19.6 µM (inactive). For the same compound, the GI50 (SF-268) was 28 µM (inactive), the GI50 (A549) was 36.2 µM (inactive) and the GI50 (RPMI-8226) was 21.7 µM (inactive). The GI50 (SNB-78) was 34.9 µM (inactive), the GI50 (SK-OV-3) was 32.6 µM (inactive) and the GI50 (HCT-15) was 37.2 µM. The GI50 (NCI-H460) was 20.8 µM (inactive), the GI50 (K562) was > 55.6 µM (inactive) and the GI50 (SK-MEL-5) was 21.7 µM (inactive).
For `CCCCNC1CCCCC[C@H]1O` (stereo partly drawn), the GI50 (SNB-75) was > 100 µM (inactive), the GI50 (DMS-273) was > 100 µM (inactive) and the GI50 (HCT-116) was > 100 µM (inactive). The GI50 (DMS-114) was > 100 µM (inactive), the GI50 (DLD-1) was > 100 µM (inactive) and the GI50 (EKVX) was > 100 µM (inactive). The GI50 (CCRF-CEM) was > 100 µM (inactive), the GI50 (SW-620) was > 100 µM (inactive) and the GI50 (SK-MEL-28) was > 100 µM (inactive). The GI50 (CAKI-1) was > 100 µM (inactive), the GI50 (OVCAR-5) was > 100 µM (inactive) and the GI50 (UACC-257) was > 100 µM (inactive). For the same compound, the GI50 (SK-MEL-2) was > 100 µM (inactive), the GI50 (HOP-62) was > 100 µM (inactive) and the GI50 (COLO 205) was > 100 µM (inactive). For the same compound, the GI50 (HL-60) was > 100 µM (inactive), the GI50 (SR) was > 100 µM (inactive) and the GI50 (M19-MEL) was > 100 µM (inactive). For the same compound, the GI50 (UACC-62) was > 100 µM (inactive), the GI50 (MOLT-4) was > 100 µM (inactive) and the GI50 (HT-29) was > 100 µM (inactive). For the same compound, the GI50 (SF-539) was > 100 µM (inactive), the GI50 (IGROV-1) was > 100 µM (inactive) and the GI50 (HOP-18) was > 100 µM (inactive). For the same compound, the GI50 (LOX IMVI) was > 100 µM (inactive), the GI50 (SNB-19) was > 100 µM (inactive) and the GI50 (NCI-H226) was > 100 µM (inactive). For the same compound, the GI50 (RXF 393) was > 100 µM (inactive), the GI50 (SF-295) was > 100 µM (inactive) and the GI50 (U-251) was > 100 µM (inactive). The GI50 (UO-31) was > 100 µM (inactive), the GI50 (SN12C) was > 100 µM (inactive) and the GI50 (NCI-H23) was > 100 µM (inactive). The GI50 (OVCAR-8) was > 100 µM (inactive), the GI50 (KM12) was > 100 µM (inactive) and the GI50 (OVCAR-3) was > 100 µM (inactive). The GI50 (KM-20L2) was > 100 µM (inactive), the GI50 (HCC 2998) was > 100 µM (inactive) and the GI50 (OVCAR-4) was > 100 µM (inactive). For the same compound, the GI50 (NCI-H522) was > 100 µM (inactive), the GI50 (HOP-92) was > 100 µM (inactive) and the GI50 (SF-268) was > 100 µM (inactive). The GI50 (A549) was > 100 µM (inactive), the GI50 (LXFL 529) was > 100 µM (inactive) and the GI50 (RPMI-8226) was > 100 µM (inactive). The GI50 (SNB-78) was > 100 µM (inactive), the GI50 (SK-OV-3) was > 100 µM (inactive) and the GI50 (ACHN) was > 100 µM (inactive). The GI50 (786-0) was > 100 µM (inactive), the GI50 (M14) was > 100 µM (inactive) and the GI50 (NCI-H460) was > 100 µM (inactive). For the same compound, the GI50 (K562) was > 100 µM (inactive), the GI50 (TK-10) was > 100 µM (inactive) and the GI50 (SK-MEL-5) was > 100 µM (inactive).
